Laboratory results from US5550212A, “Analogues of hGH-RH(1-29)NH2 having antagonistic activity” (The Administrators of the Tulane Educational Fund, priority 1993, dated 1996).
Starred links: 1 amine or outer side, 2 acyl side, 3 side chain; linkers in the order of their positions; H or OH if unused. Non-standard residues stand in square brackets, D forms with d. Residues, ends and D or L forms follow the SMILES beside them. *: point of attachment. Acetyl(1-naphthyl) = O=C(Cc1cccc2ccccc12)*; Tpi = O=C(O)[C@@H]1Cc2c([nH]c3ccccc23)CN1; Phe(4-Cl) = N[C@@H](Cc1ccc(Cl)cc1)C(=O)O; Glutaryl = O=C(CCCC(=O)[*:2])[*:1]; Isobutyryl = CC(C)C(=O)*; Nle = CCCC[C@H](N)C(=O)O; Abu = CC[C@H](N)C(=O)O; Aib = CC(C)(N)C(=O)O; X2 = O=C(CI)*

Target: T1, rat pituitary GH-RH receptors (Rattus norvegicus, UniProt Q02644)
T1 construct: from tissue; host or cells: rat anterior pituitary (male Sprague-Dawley), crude membranes
T1 sequence (Q02644 23-464): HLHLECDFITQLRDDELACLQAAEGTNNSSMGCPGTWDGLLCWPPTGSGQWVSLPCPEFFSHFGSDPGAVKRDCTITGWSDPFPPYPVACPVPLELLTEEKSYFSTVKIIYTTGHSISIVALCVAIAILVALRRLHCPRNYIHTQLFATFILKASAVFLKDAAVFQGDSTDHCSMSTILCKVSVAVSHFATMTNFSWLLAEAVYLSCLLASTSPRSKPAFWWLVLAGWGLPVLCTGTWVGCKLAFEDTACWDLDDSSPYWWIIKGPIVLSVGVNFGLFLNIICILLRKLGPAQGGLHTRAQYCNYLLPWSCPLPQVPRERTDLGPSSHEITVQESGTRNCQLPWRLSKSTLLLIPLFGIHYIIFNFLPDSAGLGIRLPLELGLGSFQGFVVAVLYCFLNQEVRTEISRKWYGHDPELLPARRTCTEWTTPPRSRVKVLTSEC
Experiment: GH-RH binding assay, competitive binding on rat anterior pituitary membrane homogenates
Details: competition with labelled [His1,Nle27]hGH-RH(1-32)NH2
Protocol: GH-RH Binding Assay. A sensitive radioreceptor binding assay was developed to determine the binding characteristics of the antagonists of GH-RH (G. Halmos, A. V. Schally et al., Receptor 3, 87-97, 1993), hereby incorporated by reference. The assay is based on binding of labelled [His^1,Nle^27 ]hGH-RH(1-32)NH2 to rat anterior pituitary membrane homogenates. Iodinated derivatives of [His^1,Nle^27 ]hGH-RH(1-32)NH2 are prepared by the chloramine-T method (F. C. Greenwood et al., Biochemistry 89:114-123, 1963), hereby incorporated by reference. Pituitaries from male Sprague-Dawley rats (250-300 g) are used to prepare crude membranes. For saturation binding analyses, membrane homogenates are incubated with at least 6 concentrations of [His^1,^25 I-Tyr^10,Nle^27 ]hGH-RH(1-32)NH2, ranging from 0.005 to 0.35 nM in the presence or absence of excess unlabelled peptide (1 μM). The pellet is counted for radioactivity in a y-counter. The affinities of the antagonist peptides tested to rat pituitary GH-RH receptors are determined in competitive binding experiments. The final binding affinities are estimated by Ki (dissociation constant of the inhibitor-receptor complex) and are determined by the Ligand PC computer program of Munson and Rodbard as modified by McPherson. Relative affinities compared to [Ac-Tyr^1,D-Arg^2 ]hGH-RH(1-29)NH2, the Standard antagonist, are calculated as the ratio of Ki of the tested GH-RH antagonist to the Ki of the Standard antagonist.

`CCCC[C@H](NC(=O)[C@@H](NC(=O)[C@H](CC(=O)O)NC(=O)[C@H](CCC(N)=O)NC(=O)[C@H](CC(C)C)NC(=O)[C@H](CC(C)C)NC(=O)[C@H](CCCCN)NC(=O)[C@H](CCCNC(=N)N)NC(=O)[C@H](C)NC(=O)[C@H](CO)NC(=O)[C@H](CC(C)C)NC(=O)[C@H](CCC(N)=O)NC(=O)[C@H](CC)NC(=O)[C@H](CC(C)C)NC(=O)[C@@H](NC(=O)[C@H](CCCCN)NC(=O)[C@H](CCCNC(=N)N)NC(=O)[C@H](Cc1ccc(O)cc1)NC(=O)[C@H](CO)NC(=O)[C@H](CC(N)=O)NC(=O)[C@@H](NC(=O)[C@H](Cc1ccc(Cl)cc1)NC(=O)[C@@H](NC(=O)[C@H](C)NC(=O)[C@H](CC(=O)O)NC(=O)[C@@H](CCCNC(=N)N)NC(=O)[C@H](Cc1ccc(O)cc1)NC(=O)Cc1cccc2ccccc12)[C@@H](C)CC)[C@@H](C)O)C(C)C)[C@@H](C)CC)C(=O)N[C@@H](CO)C(=O)N[C@@H](CCCNC(=N)N)C(N)=O` [Peptide 1, [Nac^0,D-Arg^2, Phe(pCl)^6,Abu^15, Nle^27]hGH-RH(1-29)NH2] ({Acetyl(1-naphthyl)}-Y[dR]DAI[Phe(4-Cl)]TNSYRKVL[Abu]QLSARKLLQDI[Nle]SR-NH2) and `CCCC[C@H](NC(=O)[C@@H](NC(=O)[C@H](CC(=O)O)NC(=O)[C@H](CCC(N)=O)NC(=O)[C@H](CC(C)C)NC(=O)[C@H](CC(C)C)NC(=O)[C@H](CCCCN)NC(=O)[C@H](CCCNC(=N)N)NC(=O)[C@H](C)NC(=O)[C@H](CO)NC(=O)[C@H](CC(C)C)NC(=O)[C@H](CCC(N)=O)NC(=O)[C@H](CC)NC(=O)[C@H](CC(C)C)NC(=O)[C@@H](NC(=O)[C@H](CCCCN)NC(=O)[C@H](CCCNC(=N)N)NC(=O)[C@H](Cc1ccc(O)cc1)NC(=O)[C@H](CO)NC(=O)[C@H](CC(N)=O)NC(=O)[C@@H](NC(=O)[C@H](Cc1ccc(Cl)cc1)NC(=O)[C@@H](NC(=O)[C@H](C)NC(=O)[C@H](CC(=O)O)NC(=O)[C@@H](CCCNC(=N)N)NC(=O)[C@H](Cc1c[nH]cn1)NC(=O)Cc1cccc2ccccc12)[C@@H](C)CC)[C@@H](C)O)C(C)C)[C@@H](C)CC)C(=O)N[C@@H](CO)C(=O)N[C@@H](CCCNC(=N)N)C(N)=O` [Peptide 5, [Nac^0 -His^1,D-Arg^2,Phe(pCl)^6,Abu^15, Nle^27]hGH-RH(1-29)NH2] ({Acetyl(1-naphthyl)}-H[dR]DAI[Phe(4-Cl)]TNSYRKVL[Abu]QLSARKLLQDI[Nle]SR-NH2) are within error of each other in Ki: 0.04 ± 0.01 nM for the first, 0.05 ± 0.01 nM for the second.

`CCCC[C@H](NC(=O)[C@@H](NC(=O)[C@H](CC(=O)O)NC(=O)[C@H](CCC(N)=O)NC(=O)[C@H](CC(C)C)NC(=O)[C@H](CC(C)C)NC(=O)[C@H](CCCCN)NC(=O)[C@H](CCCNC(=N)N)NC(=O)[C@H](C)NC(=O)[C@H](CO)NC(=O)[C@H](CC(C)C)NC(=O)[C@H](CCC(N)=O)NC(=O)[C@H](CC)NC(=O)[C@H](CC(C)C)NC(=O)[C@@H](NC(=O)[C@H](CCCCN)NC(=O)[C@H](CCCNC(=N)N)NC(=O)[C@H](Cc1ccc(O)cc1)NC(=O)[C@H](CO)NC(=O)[C@H](CC(N)=O)NC(=O)[C@@H](NC(=O)[C@H](Cc1ccc(Cl)cc1)NC(=O)[C@@H](NC(=O)[C@H](C)NC(=O)[C@H](CC(=O)O)NC(=O)[C@@H](CCCNC(=N)N)NC(=O)[C@H](CCC(=O)O)NC(=O)C(C)C)[C@@H](C)CC)[C@@H](C)O)C(C)C)[C@@H](C)CC)C(=O)N[C@@H](CO)C(=O)N[C@@H](CCCNC(=N)N)C(N)=O` [Peptide 7] (Isobutyryl-E[dR]DAI[Phe(4-Cl)]TNSYRKVL[Abu]QLSARKLLQDI[Nle]SR-NH2) and `CCCC[C@H](NC(=O)[C@@H](NC(=O)[C@H](CC(=O)O)NC(=O)[C@H](CCC(N)=O)NC(=O)[C@H](CC(C)C)NC(=O)[C@H](CC(C)C)NC(=O)[C@H](CCCCN)NC(=O)[C@H](CCCNC(=N)N)NC(=O)[C@H](C)NC(=O)[C@H](CO)NC(=O)[C@H](CC(C)C)NC(=O)[C@H](CCC(N)=O)NC(=O)[C@H](CC)NC(=O)[C@H](CC(C)C)NC(=O)[C@@H](NC(=O)[C@H](CCCCN)NC(=O)[C@H](CCCNC(=N)N)NC(=O)[C@H](Cc1ccc(O)cc1)NC(=O)[C@H](CO)NC(=O)[C@H](CC(N)=O)NC(=O)[C@@H](NC(=O)[C@H](Cc1ccc(Cl)cc1)NC(=O)[C@@H](NC(=O)[C@H](C)NC(=O)[C@H](CC(=O)O)NC(=O)[C@@H](CCCNC(=N)N)NC(=O)[C@H](CCC(=O)O)NC(=O)CI)[C@@H](C)CC)[C@@H](C)O)C(C)C)[C@@H](C)CC)C(=O)N[C@@H](CO)C(=O)N[C@@H](CCCNC(=N)N)C(N)=O` [Peptide 8] (X2-E[dR]DAI[Phe(4-Cl)]TNSYRKVL[Abu]QLSARKLLQDI[Nle]SR-NH2) are within 1.5-fold of each other in Ki: 1.35 ± 0.02 nM for the first, 0.91 ± 0.01 nM for the second.

`CCCC[C@H](NC(=O)[C@@H](NC(=O)[C@H](CC(=O)O)NC(=O)[C@H](CCC(N)=O)NC(=O)[C@H](CC(C)C)NC(=O)[C@H](CC(C)C)NC(=O)[C@H](CCCCN)NC(=O)[C@H](CCCNC(=N)N)NC(=O)[C@H](C)NC(=O)[C@H](CO)NC(=O)[C@H](CC(C)C)NC(=O)[C@H](CCC(N)=O)NC(=O)[C@H](CC)NC(=O)[C@H](CC(C)C)NC(=O)[C@@H](NC(=O)[C@H](CCCCN)NC(=O)[C@H](CCCNC(=N)N)NC(=O)[C@H](Cc1ccc(O)cc1)NC(=O)[C@H](CO)NC(=O)[C@H](CC(N)=O)NC(=O)[C@@H](NC(=O)[C@H](Cc1ccc(Cl)cc1)NC(=O)[C@@H](NC(=O)[C@H](C)NC(=O)[C@H](CC(=O)O)NC(=O)[C@@H](CCCNC(=N)N)NC(=O)[C@H](CCC(=O)O)NC(=O)Cc1cccc2ccccc12)[C@@H](C)CC)[C@@H](C)O)C(C)C)[C@@H](C)CC)C(=O)N[C@@H](CO)C(=O)N[C@@H](CCCNC(=N)N)C(N)=O` [Peptide 9] ({Acetyl(1-naphthyl)}-E[dR]DAI[Phe(4-Cl)]TNSYRKVL[Abu]QLSARKLLQDI[Nle]SR-NH2) and `CCCC[C@H](NC(=O)[C@@H](NC(=O)[C@H](CC(=O)O)NC(=O)[C@H](CCC(N)=O)NC(=O)[C@H](CC(C)C)NC(=O)[C@H](CC(C)C)NC(=O)[C@H](CCCCN)NC(=O)[C@H](CCCNC(=N)N)NC(=O)[C@H](C)NC(=O)[C@H](CO)NC(=O)[C@H](CC(C)C)NC(=O)[C@H](CCC(N)=O)NC(=O)[C@H](CC)NC(=O)[C@H](CC(C)C)NC(=O)[C@@H](NC(=O)[C@H](CCCCN)NC(=O)[C@H](CCCNC(=N)N)NC(=O)[C@H](Cc1ccc(O)cc1)NC(=O)[C@H](CO)NC(=O)C(C)(C)NC(=O)[C@@H](NC(=O)[C@H](Cc1ccccc1)NC(=O)[C@@H](NC(=O)[C@H](C)NC(=O)[C@H](CC(=O)O)NC(=O)[C@@H](CCCNC(=N)N)NC(=O)[C@H](Cc1ccc(O)cc1)NC(=O)C(C)C)[C@@H](C)CC)[C@@H](C)O)C(C)C)[C@@H](C)CC)C(=O)N[C@@H](CO)C(=O)N[C@@H](CCCNC(=N)N)C(N)=O` [Peptide 13, [Ibu^0,D-Arg^2,Aib^8,Abu^15,Nle^27]hGH-RH(1-29)NH2] (Isobutyryl-Y[dR]DAIFT[Aib]SYRKVL[Abu]QLSARKLLQDI[Nle]SR-NH2) are within error of each other in Ki: 0.87 ± 0.1 nM for the first, 0.78 ± 0.06 nM for the second.

For `CCCC[C@H](NC(=O)[C@@H](NC(=O)[C@H](CC(=O)O)NC(=O)[C@H](CCC(N)=O)NC(=O)[C@H](CC(C)C)NC(=O)[C@H](CC(C)C)NC(=O)[C@H](CCCCN)NC(=O)[C@H](CCCNC(=N)N)NC(=O)[C@H](C)NC(=O)[C@H](CO)NC(=O)[C@H](CC(C)C)NC(=O)[C@H](CCC(N)=O)NC(=O)[C@H](CC)NC(=O)[C@H](CC(C)C)NC(=O)[C@@H](NC(=O)[C@H](CCCCN)NC(=O)[C@H](CCCNC(=N)N)NC(=O)[C@H](Cc1ccc(O)cc1)NC(=O)[C@H](CO)NC(=O)[C@H](CC(N)=O)NC(=O)[C@@H](NC(=O)[C@@H]1Cc2c([nH]c3ccccc23)CN1C(=O)[C@@H](NC(=O)[C@H](C)NC(=O)[C@H](CC(=O)O)NC(=O)[C@@H](CCCNC(=N)N)NC(=O)CCCC(=O)O)[C@@H](C)CC)[C@@H](C)O)C(C)C)[C@@H](C)CC)C(=O)N[C@@H](CO)C(=O)N[C@@H](CCCNC(=N)N)C(N)=O` [Peptide 12, [Glt^1,D-Arg^2,Tpi^6,Abu^15,Nle^27]hGH-RH(1-29)NH2] (Glutaryl-[dR]DAI[Tpi]TNSYRKVL[Abu]QLSARKLLQDI[Nle]SR-NH2), the Ki was 0.3 ± 0.15 nM.
